Assay [1] relates to Ras, dynamin, Grin2B, and mGlur5. Briefly: Western blot of candidate proteins in brains of FXS and WT littermates after chronic S6K1 inhibitor treatment. Type of assay: in vivo, mouse. The conditions noted are these: for Expression of candidate proteins (Ras, dynamin, Grin2B, mGlur5) in brain after treatment: FXS model mice, chronic treatment, 25 mg/kg i.p. daily for 10 days, western blot, 25 mg/kg. The procedure: (§1) PF-4708671 was obtained from Sigma, Mo., USA. Littermate matched mice underwent 10 days of daily 25 mg/kg intraperitoneal injections of PF-4708671 in a vehicle consisting of saline +5% v/v of Tween-80 (Sigma). On day 10, 90 mins after the final injection mice were killed by cervical dislocation and the hippocampus was quickly dissected to yield whole hippocampal lysates. Simultaneously, trunk blood also was collected to monitor peripheral levels of proteins.
Thus, the candidates correlate with improved behavior in the brain. We therefore evaluated if they could be measured and quantified in a peripheral tissue such as blood. Animals were treated as described above with PF-4708671, then animals were euthanized via cervical dislocation and brain tissue was collected on ice and snap frozen. Lysates were then prepared as previously described (Bhattacharya et al, 2016, incorporated herein by reference) and analyzed by western blot.
Brain tissues were obtained immediately following euthanasia, snap frozen and homogenized in lysis buffer containing protease and phosphatase inhibitors. Lysates were then analyzed using Western blotting and the levels of specific candidates was determined using densitometry and comparing them to a known loading control such as actin, Gapdh or transferrin receptor.

A further assay concerns Ras. Description: Concentration levels of mGluR and Ras in mouse trunk blood after 10 days of treatment. Type of assay: in vivo. The procedure: as §1
FXS or wild type mice were treated with an S6K1 inhibitor, PF-4708671 (S6Ki) for 10 days. Concentration levels of the two markers—mGluR and Ras in mouse trunk blood treated with vehicle or the S6Ki were determined. N=3 animals per treatment per genotype were used. Statistical analyses was done using two-way ANOVA (genotype×treatment). P=0.0079 for interaction and p=0.019 for FXS±S6Ki and p=0.16 for WT±S6Ki.

Assay [2] concerns FXS model mice. The conditions noted are these: cited from earlier work.
Assay [3] has as its system FXS model mice. The conditions noted are these: cited from earlier work. This is another data set of the same source.
The test system of assay [4] is FXS model mice. The conditions noted are these: cited from earlier work. The source holds these as a separate data set.
Assay [5] deals with FXS model mice. The conditions noted are these: cited from earlier work. This is another data set of the same source.

Molecules are shown by their SMILES.

For `CCc1cncnc1N1CCN(Cc2nc3ccc(C(F)(F)F)cc3[nH]2)CC1` [PF-4708671], in assay [1] (FXS mice, brain, FIG. 3), the “Ras in the brain of FXS mice after S6K1 inhibitor” value was “does not change”. The “Expression of candidate proteins (Ras, dynamin, Grin2B, mGlur5) in brain after treatment” value is reported as “rescues expression of 3 protein candidates in brain” in assay [1] and 3 out of 4 are statistically improved in assay [1] (listed as S6K1 inhibitor). In addition, in the assay on Ras (FXS mice, vehicle 10 days (printed as FXS+veh)), the “Ras level in trunk blood, greater than WT veh” value was found to be 31%. The “Ras level in trunk blood, average (+/-SD)” value in the assay with Ras (FXS mice, vehicle 10 days, N=3 (printed as FXS+veh)) is 1.19±0.21; in the assay on Ras (WT mice, S6Ki 10 days, N=3) it was 0.62±0.20. In addition, the “Candidate proteins (mGluR, Ras) in FXS model mouse blood rescued by treatment” value in the assay on Ras (FXS model mice, trunk blood, 10 days, listed as S6K1 inhibitor) is “one was rescued”. Also, in the assay on Ras (WT mice, S6Ki 10 days), the “Ras level in trunk blood, less from WT veh” value is given as 32%. Besides, in the assay on FXS model mice [2], the “Aberrant social novelty behavior, rescued by S6K1i” value is “Both inhibitors rescued”. Further, the “Aberrant spine morphology, rescued by S6K1i” value with FXS model mice [3] is on record as “Both inhibitors rescued”. Further, the “Increased protein synthesis, rescued by S6K1i” value in the assay on FXS model mice [4] is on record as “Both inhibitors rescued”. The “Aberrant y-maze reversal learning, rescued by S6K1i” value in the assay with FXS model mice [5] is recorded as “Both inhibitors rescued”.

The values above are taken from patent publication US10502749B1, “Method for patient stratification and drug efficacy monitoring” (New York University, priority 2016, dated 2019).
